Measurements from a compilation of properties of binary mixtures (doi:10.1016/j.molliq.2018.12.024).

Assay: xn = mol fraction of the nth substance listed
Settings: 298.15 K, 100 kPa

Work on `CC(=O)[O-].Cn1cc[nH+]c1` + CC(=O)[O-].C[NH+]1CCOCC1 yielded an electrical conductivity (x1 = 1) of 0.448 S/m.

Work on `CC(=O)[O-].C[NH+]1CCOCC1` + CC(=O)[O-].Cn1cc[nH+]c1 yielded an electrical conductivity (x2 = 0) of 0.0229 S/m, an electrical conductivity (x2 = 0.1) of 0.0447 S/m and an electrical conductivity (x2 = 0.19) of 0.0662 S/m. It also gave an electrical conductivity (x2 = 0.31) of 0.0959 S/m, an electrical conductivity (x2 = 0.4) of 0.158 S/m and an electrical conductivity (x2 = 0.5) of 0.202 S/m. For the same compound, the electrical conductivity (x2 = 0.59) was 0.242 S/m and the electrical conductivity (x2 = 0.8) was 0.331 S/m.

For `CCCC[N+]1(C)CCCC1.O=S(=O)([N-]S(=O)(=O)C(F)(F)F)C(F)(F)F` + CC(=O)[O-].Cn1cc[nH+]c1, the viscosity (x2 = 0) was 74.9 mPa·s.

`CCCC[n+]1ccn(C)c1.O=S(=O)([N-]S(=O)(=O)C(F)(F)F)C(F)(F)F` + CC(=O)[O-].Cn1cc[nH+]c1 showed a viscosity (x2 = 0) of 49.3 mPa·s.

Compound `COS(=O)(=O)[O-].Cn1cc[n+](C)c1` + CC(=O)[O-].Cn1cc[nH+]c1 has a viscosity (x2 = 0) of 93.4 mPa·s.

Work on `CC(=O)[O-].Cn1cc[nH+]c1` + CCCC[N+]1(C)CCCC1.O=S(=O)([N-]S(=O)(=O)C(F)(F)F)C(F)(F)F yielded a viscosity (x1 = 0.1) of 59.5 mPa·s, a viscosity (x1 = 0.31) of 38.8 mPa·s and a viscosity (x1 = 0.4) of 33.3 mPa·s. The viscosity (x1 = 0.59) was 21.1 mPa·s, the viscosity (x1 = 0.71) was 15.9 mPa·s and the viscosity (x1 = 0.8) was 12.1 mPa·s.

With `CC(=O)[O-].Cn1cc[nH+]c1` + CCCC[n+]1ccn(C)c1.O=S(=O)([N-]S(=O)(=O)C(F)(F)F)C(F)(F)F the viscosity (x1 = 0.1) was 42.8 mPa·s, the viscosity (x1 = 0.19) was 38.4 mPa·s and the viscosity (x1 = 0.31) was 33.5 mPa·s. The viscosity (x1 = 0.4) was 28.8 mPa·s, the viscosity (x1 = 0.5) was 24.5 mPa·s and the viscosity (x1 = 0.59) was 20.2 mPa·s. It also gave a viscosity (x1 = 0.71) of 15.5 mPa·s, a viscosity (x1 = 0.8) of 12.2 mPa·s and a viscosity (x1 = 1) of 6.22 mPa·s.

Compound `CC(=O)[O-].Cn1cc[nH+]c1` + COS(=O)(=O)[O-].Cn1cc[n+](C)c1 has a viscosity (x1 = 0.71) of 19.9 mPa·s, a viscosity (x1 = 0.8) of 13.6 mPa·s and a viscosity (x1 = 1) of 6.22 mPa·s.
